System: ADMA in PANC-1 xenograft tissues
Assay: Immunofluorescence staining of ADMA in xenograft tumor tissue
Type: in vivo, mouse
Conditions: after 2 weeks treatment, compared to PBS or gemcitabine alone
Protocol: 6 Effect of small-molecule modulators on gemcitabine-induced apoptosis and tumor growth of PDAC cells. […] After 2 h, gemcitabine (GEM) was added at increasing concentrations (10 and 25 nM) or not (−) for another incubation of 72 h. Subsequently, the luminescence-based caspase3/7 assay was performed. The activity of caspase 3/7 in treated cells was normalized to the activity measured in untreated cells (dark gray bar), which was set to 1 (mean SD, n = 6 for PANC-1 and n = 4 for PaTu8988T; *: p ≤ 0.05, **: p ≤ 0.01, ***: p ≤ 0.001, using the student t-test). […] After 24 h, gemcitabine (GEM, 1 μM) was added (+) or not (−) for another incubation of 48 h. Subsequently, the apoptotic cell fraction was quantified in % by flow cytometry using FITC-labeled Annexin V (AV) and propidium iodide (PI) staining (in B: mean ± SD, n = 6 for PANC-1 and n = 5 for PaTu8988T; **: p ≤ 0.01, ***: p ≤ 0.001, ****: p ≤ 0.0001, using the student t-test). […] Tumor volumes were measured every second day using a digital caliper. […]
For antigen retrieval, tissue sections were steam-heated for 35 min in citrate buffer (pH 6.0), cooled down to room temperature, and then washed in PBS. […] Fluorescence images were acquired using the Confocal Laser Scanning microscope Leica SP8i and analyzed with IMARIS 9.9.0 (Bitplane-Oxford Instruments, Abingdon, GB) using the Cell module.

Q: `CN(C)Cc1cccc(CN/C=C2\C(=O)NC(=O)c3ccccc32)c1.Cl` [TR-07, (Z)-1-[3-({[(1,3-Dioxo-2,3-dihydroisoquinolin-4(1H)-lidene)methyl]amino}methyl)phenyl]-N,N-dimethylmethanaminium chloride] was tested. Which “mean intensity ADMA levels in PANC-1 xenografts (IF staining)” value did it give?
A: elevated mean intensity ADMA levels

Source: paper PMC13576449, “Small-Molecule Activators of PRMT1: Discovery, SAR Analyses, and Proapoptotic Effects in Pancreatic Cancer Cells” (Journal of Medicinal Chemistry, 2026)
